Test results: US20060014193A1, “Nucleoside phosphoramidates and nucleoside phosphoramidases” (priority 2004, published 2006)
Read-outs that look alike come from different tables or passages of the source.

Legend:
hHINT1 [1] = biological target: T1, hHINT1 (Homo sapiens, UniProt P49773); experiment: 31P NMR phosphoramidase assay of purified protein; format: biochemical; settings: for Specific activity: 10 mM substrate, pH 7.2, 22° C.
Description: (§1) Phosphoramidase activity in cell lysates was measured by the ^1H-decoupling mode of phosphorus-31 NMR spectroscopy (Varian VAC-300 spectrometer), which can clearly distinguish the substrate, AMP-NH2, and the product, adenosine 5′-monophosphate (AMP). NMR spectrometry is suitable for quantitation by integration of the area under the peak, which is proportional to the amount of nuclei present. The relative ratio of peak areas can be used to calculate the amount of turnover corrected based on a standard curve.
(§2) Cell lysates from E. coli Tuner(DE3)pLacI cells (Novagen) were obtained by treatment with lysozyme (1 mg/ml) and the DNA was precipitated by protamine sulfate followed by centrifugation to remove cell debris. The supernatant was dialyzed extensively against Buffer A (20 mM Tris (pH 7.0); 1 mM EDTA; 1 mM DTT, 0.01 mM PMSF) to remove cellular phosphates and nucleotides. Phosphate free cell lysates (0.75 mg total protein) were incubated with 5 mM AMP-NH2 in 0.5 ml reaction buffer (0.5 mM MgCl2, 20 mM HEPES (pH 7.2)) at 37° C. for intervals of 15 min, 30 min, and 12 h. The reactions were terminated by snap freezing in a dry ice/acetone slush bath and lyophilized for 5 h. The samples were then dissolved in NMR buffer (600 μL, 50 mM EDTA, 20 mM HEPES (pH 7.2), and 1 mM TMP (trimethylphosphate, internal standard)) and the insoluble portion was spun down by centrifugation at 12,500×g for 5 min. A ^31P NMR spectrum was then collected for the supernatant. For the low pH control experiment, 10 mM AMP-NH2 in reaction buffer (500 μL, pH 2.0) was incubated at 37° C. for 12 h and the 31p signal was detected under the same conditions.
(§3) Five recombinant purified proteins were tested with three commercial available compounds (Sigma): AMP-NH2, adenosine 5′-monophosphomorpholidate (AMP-Mor), and guanosine 5′-monophosphomorpholidate (GMP-Mor) (FIG. 1). The compounds (10 mM) were incubated with proteins (2.5-10 μg) in the reaction buffer (500 μL, 0.5 mM MgCl2, 20 mM HEPES (pH 7.2)) at 22° C. for intervals of 36 and 66 min. The reactions were quenched by adding 5 M NaOH (20 μL), followed by snap freezing in a dry ice/acetone slush bath, and lyophilized. The sample preparation for ^31P NMR measurement was as described above for the cell-lysate experiment except that the pH was adjusted by the addition of 12 μL 6 M HCl before NMR spectra were collected.

E. coli hinT [2] = biological target: T2, E. coli hinT (Escherichia coli, UniProt P0ACE7); experiment: 31P NMR phosphoramidase assay of purified protein; format: biochemical; settings: for Specific activity: 10 mM substrate, pH 7.2, 22° C.
T2 sequence (P0ACE7 1-119): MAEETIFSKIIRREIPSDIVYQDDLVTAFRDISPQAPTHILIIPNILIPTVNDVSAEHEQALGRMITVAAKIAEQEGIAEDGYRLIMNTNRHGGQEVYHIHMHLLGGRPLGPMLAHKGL
Description: as §1, §2, §3

Rabbit HINT1 = biological target: T3, Rabbit HINT1 (Oryctolagus cuniculus, UniProt P80912); experiment: 31P NMR phosphoramidase assay of purified protein; format: biochemical; settings: for Specific activity: 10 mM substrate, pH 7.2, 22° C.
T3 construct: made in house; host or cells: E. coli hinT deletion mutant
Description: as §1, §2, §3

E. coli hinT-DHFR = biological target: T4, E. coli hinT-DHFR (Escherichia coli, UniProt P0ABQ4+P0ACE7); experiment: 31P NMR phosphoramidase assay of purified protein; format: biochemical; settings: 10 mM substrate, pH 7.2, 22° C.
T4 construct: made in house; host or cells: E. coli Tuner(DE3)pLacI
Description: as §1, §2, §3

Human Hint1-DHFR = biological target: T5, Human Hint1-DHFR (UniProt P0ABQ4+P49773); experiment: 31P NMR phosphoramidase assay of purified protein; format: biochemical; settings: 10 mM substrate, pH 7.2, 22° C.
T5 construct: made in house; host or cells: E. coli (following the procedure for the hinT plasmid)
Description: as §1, §2, §3

E. coli hinT [3] = biological target: T2, E. coli hinT; experiment: Phosphoramidase fluorescence assay; format: biochemical; settings: Table 5
Description: The fluorescence of tryptophan (ex, 280 nm, em 360 nm) can be quenched when covalently attached to a nucleoside monophosphate, and nucleoside phosphoramidates of D- and L-tryptophan and tryptamine are excellent fluorescent substrates for hHINT1. […] Based on the generation of chimeric polypeptides between the hHINTI and the hinT of E. coli, the preference for D enantiomers by the human HINT1 polypeptide is likely conferred by the C-terminus amino acids (e.g., the C-terminus 5, 6, 5 7, 8, 9, 10, or 11 amino acids) of the hHINT1 enzyme. […] In addition, both D-tryptophan phosphoramidates of cytosine and uridine were substrates. Initial rates were determined 10 during the first 10-20% of the reaction for variable substrate concentrations. The Michaelis-Menten constants, kcat and Km, for selected nucleoside phosphosphoramidates have been determined. […] As observed in the initial screening assay, for phosphoramidates containing L-tryptophan, hHINT1 has a 7-fold greater preference for AMP phosphoramidates of L-tryptophan than GMP.
In addition, the Michaelis-Menten constants, kcat and Km, for selected nucleoside phosphosphoramidates were determined for both human Hint1 and E. coli hinT (Table 5).

hHINT1 [4] = biological target: T1, hHINT1; experiment: Phosphoramidase fluorescence assay; format: biochemical; settings: for Kcat / Km: Table 5
Description: The fluorescence of tryptophan (ex, 280 nm, em 360 nm) can be quenched when covalently attached to a nucleoside monophosphate, and nucleoside phosphoramidates of D- and L-tryptophan and tryptamine are excellent fluorescent substrates for hHINT1. Typically, after measurement of initial substrate fluorescence, hHINT1 was added to the reaction solution (HEPES buffer, pH 7.2, 25° C.) and the change in fluorescence over 2 min was determined by converting the slope into μM of substrate hydrolyzed per μg of enzyme per min with a standard curve. […] Based on the generation of chimeric polypeptides between the hHINTI and the hinT of E. coli, the preference for D enantiomers by the human HINT1 polypeptide is likely conferred by the C-terminus amino acids (e.g., the C-terminus 5, 6, 5 7, 8, 9, 10, or 11 amino acids) of the hHINT1 enzyme. […] In addition, both D-tryptophan phosphoramidates of cytosine and uridine were substrates. Initial rates were determined 10 during the first 10-20% of the reaction for variable substrate concentrations. The Michaelis-Menten constants, kcat and Km, for selected nucleoside phosphosphoramidates have been determined. (Table 4). As observed in the initial screening assay, for phosphoramidates containing L-tryptophan, hHINT1 has a 7-fold greater preference for AMP phosphoramidates of L-tryptophan than GMP.

hHINT1 [5] = biological target: T1, hHINT1; settings: literature (J. Biol. Chem. 2004, 279, 18711; 2002, 277, 10852); cited from earlier work
hHINT1 [6] = biological target: T1, hHINT1; experiment: Catalytic activity (velocity) of cloned, purified phosphoramidase with AMPNH2; format: biochemical
Description: The enzyme responsible for hydrolysis of AZT amino acid phosphoramidates was cloned and characterized. After construction of a cDNA library from peripheral blood mononuclear cells (PBMCs) in T7Select10-3b phage, the phage display technique was employed to isolate the enzyme by affinity chromatography. After three rounds of phage selection and ampilification with an affinity column constructed from the L-tryptophan carbamate, DNA from ten selected plaques was amplified by PCR and sequenced. […] Hint1 is a member of the HIT protein superfamily, which consists of a recently identified adenosine 5′-monophosphoramide hydrolases from rabbit and yeast.
Velocity of the enzymes was determined at pH 7.2 at room temperature in the presence of 10 mM AMPNH2.

[7] = FIG. 5 substrate preference screen

| Compound | Kcat (E. coli hinT [3]) [s⁻¹] | Km (E. coli hinT [3]) [µM] | Kcat (hHINT1 [4]) [s⁻¹] | Km (hHINT1 [4]) [µM] | also measured |
| --- | --- | --- | --- | --- | --- |
| Nc1ncnc2c1ncn2[C@@H]1O[C@H](COP(=O)(O)N2CCOCC2)[C@@H](O)[C@H]1O [AMP-Mor, adenosine 5′-monophosphomorpholidate] | – | – | – | – | Specific activity (hHINT1 [1]): 45.0 ± 0 nmol nmol^−1 min^−1; Specific activity (E. coli hinT [2]): 360 ± 1 nmol nmol^−1 min^−1; Specific activity (Rabbit HINT1): 26.6 ± 0.6 nmol nmol^−1 min^−1; Specific activity (E. coli hinT-DHFR): 411 ± 4 nmol nmol^−1 min^−1; Specific activity (Human Hint1-DHFR): 43.4 ± 4.0 nmol nmol^−1 min^−1 |
| Nc1ncnc2c1ncn2[C@@H]1O[C@H](COP(=O)(O)NCCc2c[nH]c3ccccc23)[C@@H](O)[C@H]1O [AMP-Tryptamine] | 4.07 ± 0.11 | 5.03 ± 0.21 | 2.05 ± 0.27 | 0.25 ± 0.05 | – |
| Nc1ncnc2c1ncn2[C@@H]1O[C@H](COP(=O)(O)NCCCC[C@H](N)C(=O)O)[C@@H](O)[C@H]1O [AMP-lysine] | – | – | – | – | Kcat (hHINT1 [5]): 0.234 ± 0.011 s⁻¹; Km (hHINT1 [5]): 0.472 ± 0.057 µM |
| Nc1ncnc2c1ncn2[C@@H]1O[C@H](COP(=O)(O)NCCc2c[nH]c3ccccc23)[C@@H](O)[C@@H]1O [Ara-AMP-Tryptamine] | 0.95 ± 0.17 | 34.6 ± 5.64 | 0.85 ± 0.1 | 0.79 ± 0.11 | – |
| Nc1nc2c(ncn2C2OC(COP(=O)(O)NC(Cc3c[nH]c4ccccc34)C(=O)O)C(O)C2O)c(=O)[nH]1 [GMP D-tryptophan phosphoramidate, guanosine monophosphate (GMP) D-tryptophan phosphoramidate] | – | – | – | – | Activity relative to 7-benzyl guanosine monophosphate (7-Bn GMP) (hHINT1 [4]; [7]): approximately 7 fold; Activity relative to GMP L-tryptophan (hHINT1 [4]; [7]): nearly identical |
| COC(=O)[C@@H](Cc1c[nH]c2ccccc12)NP(=O)(O)OC[C@H]1O[C@@H](n2cnc3c(=O)[nH]c(N)nc32)[C@H](O)[C@@H]1O [GMP-D-TrpCOOMe] | 1.75 ± 0.05 | 21.3 ± 1.21 | 0.29 ± 0.02 | 3.27 ± 0.58 | – |
| Nc1nc2c(ncn2[C@@H]2O[C@H](COP(=O)(O)N3CCOCC3)[C@@H](O)[C@H]2O)c(=O)[nH]1 [GMP-Mor, guanosine 5′-monophosphomorpholidate] | – | – | – | – | Preference for GMP-Mor over AMP-Mor (hHINT1 [1]): 2 fold; Specific activity (hHINT1 [1]): 78.7 ± 1.3 nmol nmol^−1 min^−1; Preference for GMP-Mor over AMP-Mor (E. coli hinT [2]): 2 fold; Specific activity (E. coli hinT [2]): 669 ± 1 nmol nmol^−1 min^−1; Preference for GMP-Mor over AMP-Mor (Rabbit HINT1): 2 fold; Specific activity (Rabbit HINT1): 48.6 ± 0.4 nmol nmol^−1 min^−1; Specific activity (E. coli hinT-DHFR): 675 ± 17 nmol nmol^−1 min^−1; Specific activity (Human Hint1-DHFR): 87.2 ± 11.8 nmol nmol^−1 min^−1 |
| Nc1nc2c(ncn2[C@@H]2O[C@H](COP(=O)(O)NCCc3c[nH]c4ccccc34)[C@@H](O)[C@H]2O)c(=O)[nH]1 [GMP-Tryptamine] | 3.45 ± 0.3 | 5.34 ± 0.69 | 2.09 ± 0.16 | 0.243 ± 0.03 | – |
| O=c1[nH]cnc2c1ncn2[C@@H]1O[C@H](COP(=O)(O)NCCc2c[nH]c3ccccc23)[C@@H](O)[C@H]1O [IMP-Tryptamine] | 3.89 ± 0.18 | 13.7 ± 0.67 | 2.53 ± 0.09 | 0.71 ± 0.03 | – |
| Cc1cn([C@H]2C[C@H](O)[C@@H](COP(=O)(O)NCCc3c[nH]c4ccccc34)O2)c(=O)[nH]c1=O [TMP-Tryptamine] | 0.014 ± 0.001 | 35.9 ± 2.27 | 0.044 ± 0.01 | 26.1 ± 2.78 | – |
| O=c1ccn([C@@H]2O[C@H](COP(=O)(O)NCCc3c[nH]c4ccccc34)[C@@H](O)[C@H]2O)c(=O)[nH]1 [UMP-Tryptamine] | 1.63 ± 0.22 | 25.1 ± 3.56 | 1.85 ± 0.29 | 1.42 ± 0.25 | – |
| AZT tryptophan phosphoramidate | – | – | – | – | Hydrolysis by over-expressed, purified human Hint1 (hHINT1 [6]): to a lesser extent |
